PubChem BioAssay (NCI)
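A five-concentration, 48-hour dose response in 96-well plates underlies each endpoint, interpolated linearly between surrounding concentrations. The concentration for full growth arrest is given as TGI.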

Tests used:
Assay in all cases: DTP human tumour cell line panel, 48 h
786-0 renal = test system: 786-0 renal
A498 renal = test system: A498 renal
A549 NSCLC = test system: A549 NSCLC
ACHN renal = test system: ACHN renal
BT-549 breast = test system: BT-549 breast
CAKI-1 renal = test system: CAKI-1 renal
CCRF-CEM leukemia = test system: CCRF-CEM leukemia
COLO 205 colon = test system: COLO 205 colon
DU-145 prostate = test system: DU-145 prostate
EKVX NSCLC = test system: EKVX NSCLC
HCC-2998 colon = test system: HCC-2998 colon
HCT-116 colon = test system: HCT-116 colon
HCT-15 colon = test system: HCT-15 colon
HL-60(TB) leukemia = test system: HL-60(TB) leukemia
HOP-62 NSCLC = test system: HOP-62 NSCLC
HOP-92 NSCLC = test system: HOP-92 NSCLC
HS 578T breast = test system: HS 578T breast
HT29 colon = test system: HT29 colon
IGROV1 ovarian = test system: IGROV1 ovarian
K-562 leukemia = test system: K-562 leukemia
KM12 colon = test system: KM12 colon
LOX IMVI melanoma = test system: LOX IMVI melanoma
M14 melanoma = test system: M14 melanoma
MALME-3M melanoma = test system: MALME-3M melanoma
MCF7 breast = test system: MCF7 breast
MDA-MB-231 breast = test system: MDA-MB-231 breast
MDA-MB-435 = test system: MDA-MB-435
MOLT-4 leukemia = test system: MOLT-4 leukemia
NCI-H226 lung = test system: NCI-H226 lung
NCI-H23 lung = test system: NCI-H23 lung
NCI-H460 lung = test system: NCI-H460 lung
NCI-H522 lung = test system: NCI-H522 lung
NCI/ADR-RES ovarian = test system: NCI/ADR-RES ovarian
OVCAR-3 ovarian = test system: OVCAR-3 ovarian
OVCAR-4 ovarian = test system: OVCAR-4 ovarian
OVCAR-5 ovarian = test system: OVCAR-5 ovarian
OVCAR-8 ovarian = test system: OVCAR-8 ovarian
PC-3 prostate = test system: PC-3 prostate
RPMI-8226 leukemia = test system: RPMI-8226 leukemia
RXF 393 renal = test system: RXF 393 renal
SF-268 CNS = test system: SF-268 CNS
SF-295 CNS = test system: SF-295 CNS
SF-539 CNS = test system: SF-539 CNS
SK-MEL-2 melanoma = test system: SK-MEL-2 melanoma
SK-MEL-28 melanoma = test system: SK-MEL-28 melanoma
SK-MEL-5 melanoma = test system: SK-MEL-5 melanoma
SK-OV-3 ovarian = test system: SK-OV-3 ovarian
SN12C renal = test system: SN12C renal
SNB-19 CNS = test system: SNB-19 CNS
SNB-75 CNS = test system: SNB-75 CNS
SR leukemia = test system: SR leukemia
SW-620 colon = test system: SW-620 colon
T-47D breast = test system: T-47D breast
TK-10 renal = test system: TK-10 renal
U251 CNS = test system: U251 CNS
UACC-257 melanoma = test system: UACC-257 melanoma
UACC-62 melanoma = test system: UACC-62 melanoma
UO-31 renal = test system: UO-31 renal
MDA-N = test system: MDA-N

In the case of `CC(C)c1ccc(/C=C2/C=C(c3ccc4ccccc4c3)OC2=O)cc1`, the TGI (786-0 renal) is reported as > 100 µM, the TGI (A498 renal) is reported as > 100 µM and the TGI (A549 NSCLC) is reported as > 100 µM. For the same molecule, the TGI (ACHN renal) was > 100 µM, the TGI (BT-549 breast) was > 100 µM and the TGI (CAKI-1 renal) was > 100 µM. The TGI (CCRF-CEM leukemia) was 20 µM, the TGI (COLO 205 colon) was 76.1 µM and the TGI (DU-145 prostate) was > 100 µM. The TGI (EKVX NSCLC) was > 92.5 µM, the TGI (HCC-2998 colon) was > 100 µM and the TGI (HCT-116 colon) was > 100 µM. For the same molecule, the TGI (HCT-15 colon) was > 100 µM, the TGI (HL-60(TB) leukemia) was 39.8 µM and the TGI (HOP-62 NSCLC) was > 100 µM. The TGI (HOP-92 NSCLC) was > 100 µM, the TGI (HS 578T breast) was > 100 µM and the TGI (HT29 colon) was > 100 µM. For the same molecule, the TGI (IGROV1 ovarian) was > 100 µM, the TGI (K-562 leukemia) was > 85.3 µM and the TGI (KM12 colon) was > 100 µM. The TGI (LOX IMVI melanoma) was > 100 µM, the TGI (M14 melanoma) was > 100 µM and the TGI (MALME-3M melanoma) was 33.4 µM. For the same molecule, the TGI (MCF7 breast) was > 100 µM, the TGI (MDA-MB-231 breast) was > 100 µM and the TGI (MDA-MB-435) was > 100 µM. The TGI (MOLT-4 leukemia) was 56.8 µM, the TGI (NCI-H226 lung) was > 100 µM and the TGI (NCI-H23 lung) was > 100 µM. The TGI (NCI-H460 lung) was > 100 µM, the TGI (NCI-H522 lung) was 23.5 µM and the TGI (NCI/ADR-RES ovarian) was > 100 µM. For the same molecule, the TGI (OVCAR-3 ovarian) was > 100 µM, the TGI (OVCAR-4 ovarian) was > 100 µM and the TGI (OVCAR-5 ovarian) was > 100 µM. The TGI (OVCAR-8 ovarian) was > 100 µM, the TGI (PC-3 prostate) was > 100 µM and the TGI (RPMI-8226 leukemia) was 93.7 µM. For the same molecule, the TGI (RXF 393 renal) was > 100 µM, the TGI (SF-268 CNS) was > 100 µM and the TGI (SF-295 CNS) was > 100 µM. The TGI (SF-539 CNS) was > 100 µM, the TGI (SK-MEL-2 melanoma) was 39.6 µM and the TGI (SK-MEL-28 melanoma) was > 100 µM. The TGI (SK-MEL-5 melanoma) was 29 µM, the TGI (SK-OV-3 ovarian) was > 100 µM and the TGI (SN12C renal) was > 100 µM. The TGI (SNB-19 CNS) was > 100 µM, the TGI (SNB-75 CNS) was > 100 µM and the TGI (SR leukemia) was > 52.4 µM. For the same molecule, the TGI (SW-620 colon) was > 100 µM, the TGI (T-47D breast) was > 100 µM and the TGI (TK-10 renal) was > 100 µM. The TGI (U251 CNS) was > 100 µM, the TGI (UACC-257 melanoma) was 59.2 µM and the TGI (UACC-62 melanoma) was > 100 µM. The TGI (UO-31 renal) was > 100 µM.
`O=C(Cc1cccs1)N[C@@H]1C(=O)N2C(C(=O)OC(c3ccccc3)c3ccccc3)=C(CO)CS[C@H]12` was tested, and the TGI (786-0 renal) was > 100 µM, the TGI (A498 renal) was > 100 µM and the TGI (A549 NSCLC) was > 100 µM. The TGI (ACHN renal) was > 100 µM, the TGI (CAKI-1 renal) was > 100 µM and the TGI (CCRF-CEM leukemia) was > 100 µM. For the same molecule, the TGI (COLO 205 colon) was > 100 µM, the TGI (DU-145 prostate) was > 100 µM and the TGI (EKVX NSCLC) was > 100 µM. The TGI (HCC-2998 colon) was > 100 µM, the TGI (HCT-116 colon) was > 100 µM and the TGI (HCT-15 colon) was > 100 µM. The TGI (HL-60(TB) leukemia) was > 100 µM, the TGI (HOP-92 NSCLC) was > 100 µM and the TGI (IGROV1 ovarian) was > 100 µM. The TGI (K-562 leukemia) was > 100 µM, the TGI (KM12 colon) was > 100 µM and the TGI (LOX IMVI melanoma) was > 100 µM. The TGI (M14 melanoma) was > 100 µM, the TGI (MALME-3M melanoma) was > 100 µM and the TGI (MCF7 breast) was > 100 µM. For the same molecule, the TGI (MDA-MB-231 breast) was > 100 µM, the TGI (MDA-MB-435) was > 100 µM and the TGI (MDA-N) was > 100 µM. The TGI (MOLT-4 leukemia) was > 100 µM, the TGI (NCI-H226 lung) was 96.9 µM and the TGI (NCI-H23 lung) was > 100 µM. For the same molecule, the TGI (NCI-H460 lung) was > 100 µM, the TGI (NCI-H522 lung) was > 100 µM and the TGI (NCI/ADR-RES ovarian) was > 100 µM. The TGI (OVCAR-3 ovarian) was > 100 µM, the TGI (OVCAR-4 ovarian) was > 100 µM and the TGI (OVCAR-5 ovarian) was > 100 µM. The TGI (OVCAR-8 ovarian) was > 100 µM, the TGI (PC-3 prostate) was > 100 µM and the TGI (RPMI-8226 leukemia) was > 100 µM. For the same molecule, the TGI (RXF 393 renal) was > 100 µM, the TGI (SF-295 CNS) was > 100 µM and the TGI (SF-539 CNS) was > 100 µM. For the same molecule, the TGI (SK-MEL-2 melanoma) was > 100 µM, the TGI (SK-MEL-5 melanoma) was > 100 µM and the TGI (SK-OV-3 ovarian) was > 100 µM. The TGI (SN12C renal) was > 100 µM, the TGI (SR leukemia) was > 100 µM and the TGI (SW-620 colon) was > 100 µM. For the same molecule, the TGI (TK-10 renal) was > 100 µM, the TGI (U251 CNS) was > 100 µM and the TGI (UACC-257 melanoma) was > 100 µM. For the same molecule, the TGI (UACC-62 melanoma) was > 100 µM and the TGI (UO-31 renal) was > 100 µM.
